Assay [1] relates to A549 cells. The assay is described as follows: Inhibition of KRas-mediated phosphorylation of ERK (Cisbio HTRF pERK), A549 cells. The assay is classed as cell-based. The conditions noted are these: Homo sapiens, A549, 3 h, 3 hr compound incubation. Background: TR-FRET usually uses a lanthanide donor and a delayed reading to cut background.
The subject of assay [2] is H460 cells. The assay is described as follows: Inhibition of KRas-mediated phosphorylation of ERK (Cisbio HTRF pERK), H460 cells. The assay is classed as cell-based. The conditions noted are these: Homo sapiens, NCI-H460, 3 h, 3 hr compound incubation.
In assay [3] the target is KRas G12V (Homo sapiens, UniProt P01116, G12V). The assay is described as follows: biochemical. The conditions noted are these: Binding to KRas (IC50 nM) G12V, TR-FRET displacement, KRas G12V.
In assay [4] the target is KRas G12S (Homo sapiens, UniProt P01116, G12S). The assay is classed as binding. The conditions noted are these: TR-FRET displacement, read-out: Binding to KRas (IC50 nM) G12S.
The test system of assay [5] is MKN1 cells. The assay can be described thus: Inhibition of KRas-mediated phosphorylation of ERK (Cisbio HTRF pERK), MKN1 cells. The assay is classed as cell-based. The conditions noted are these: Homo sapiens, MKN-1, 3 hr compound incubation. The procedure, abridged: (§1)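 On the first day, plate 6,000 cells into each well in RPMI medium with 10% fetal bovine serum.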

Assay [6] concerns PSN1 cells. The assay can be described thus: Inhibition of KRas-mediated phosphorylation of ERK (Cisbio HTRF pERK), PSN1 cells. The assay is classed as cell-based. The conditions noted are these: Homo sapiens, PSN1, 3 h, 3 hr compound incubation. The procedure, abridged: as §1
Assay [7] deals with H2009 cells. The assay is described as follows: Inhibition of KRas-mediated phosphorylation of ERK (Cisbio HTRF pERK), H2009 cells. The conditions noted are these: Homo sapiens, NCI-H2009, 3 hr compound incubation. The assay is classed as cell-based.
Assay [8] addresses KRas WT (Homo sapiens, UniProt P01116). The assay can be described thus: KRas binding assay (TR-FRET displacement), KRas WT. The conditions noted are these: TR-FRET displacement.
For assay [9], the system named is H358 cells. The assay is described as follows: Inhibition of KRas-mediated phosphorylation of ERK (Cisbio HTRF pERK), H358 cells. The assay is classed as cell-based. The conditions noted are these: Homo sapiens, NCI-H358, 3 h, 3 hr compound incubation.
For assay [10], the target named is KRas G12D (Homo sapiens, UniProt P01116, G12D). The assay can be described thus: biochemical. The conditions noted are these: Binding to KRas (IC50 nM) G12D, TR-FRET displacement, KRas G12D.
The test system of assay [11] is HCT116 cells. The assay can be described thus: Inhibition of KRas-mediated phosphorylation of ERK (Cisbio HTRF pERK), HCT116 cells. The assay is classed as cell-based. The conditions noted are these: Homo sapiens, HCT-116, 3 h, 3 hr compound incubation.
For assay [12], the system named is ASPC1 cells. The assay is described as follows: Inhibition of KRas-mediated phosphorylation of ERK (Cisbio HTRF pERK), ASPC1 cells. The assay is classed as cell-based. The conditions noted are these: Homo sapiens, ASPC1, 3 h, AsPC-1 cells; 3 hr compound incubation.
In assay [13] the test system is H727 cells. The assay is described as follows: Inhibition of KRas-mediated phosphorylation of ERK (Cisbio HTRF pERK), H727 cells. The assay is classed as cell-based. The conditions noted are these: Homo sapiens, NCI-H727, 3 h, 3 hr compound incubation.
The target of assay [14] is KRas G12C (Homo sapiens, UniProt P01116, G12C). The assay is classed as binding. The conditions noted are these: TR-FRET displacement, read-out: Binding to KRas (IC50 nM) G12C.
Chain of KRas G12C (P01116 1-169 isoform P01116-2 G12C): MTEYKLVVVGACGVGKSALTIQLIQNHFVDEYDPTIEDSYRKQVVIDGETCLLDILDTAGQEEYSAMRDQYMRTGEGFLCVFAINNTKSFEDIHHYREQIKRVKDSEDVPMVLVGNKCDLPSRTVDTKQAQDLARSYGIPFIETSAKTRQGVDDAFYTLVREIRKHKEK

Chain of KRas G12D (P01116 1-169 isoform P01116-2 G12D): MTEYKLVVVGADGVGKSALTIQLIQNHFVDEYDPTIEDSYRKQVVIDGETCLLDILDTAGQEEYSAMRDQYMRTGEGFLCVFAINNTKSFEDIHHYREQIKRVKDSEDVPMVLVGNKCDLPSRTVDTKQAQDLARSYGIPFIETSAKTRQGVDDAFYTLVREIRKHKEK
Chain of KRas G12S (P01116 1-169 isoform P01116-2 G12S): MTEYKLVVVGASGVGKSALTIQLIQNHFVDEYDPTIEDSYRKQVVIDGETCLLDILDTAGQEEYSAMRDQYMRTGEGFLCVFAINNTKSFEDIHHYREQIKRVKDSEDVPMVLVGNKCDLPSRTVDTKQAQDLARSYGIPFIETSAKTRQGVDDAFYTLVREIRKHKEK
Chain of KRas G12V (P01116 1-169 isoform P01116-2 G12V): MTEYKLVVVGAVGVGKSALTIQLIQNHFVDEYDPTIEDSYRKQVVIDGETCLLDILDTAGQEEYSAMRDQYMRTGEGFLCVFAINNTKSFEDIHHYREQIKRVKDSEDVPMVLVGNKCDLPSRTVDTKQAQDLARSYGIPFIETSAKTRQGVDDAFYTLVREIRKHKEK
Chain of KRas WT (P01116 1-169 isoform P01116-2): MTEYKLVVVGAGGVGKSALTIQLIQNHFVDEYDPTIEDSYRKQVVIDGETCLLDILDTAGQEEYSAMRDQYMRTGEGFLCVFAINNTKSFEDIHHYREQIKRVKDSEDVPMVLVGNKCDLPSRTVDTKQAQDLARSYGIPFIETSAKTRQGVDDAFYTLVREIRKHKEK

Regarding `C=C1CN2CCCC2(COc2nc3c(c(N4CCCC5(CNS(=O)(=O)N5)C4)n2)CCN(c2cc(O)cc4ccc(F)c(CC)c24)C3)C1` (stereo not shown) [Example 712, 7-(7-(8-ethyl-7-fluoro-3-hydroxynaphthalen-1-yl)-2-((2-methylenetetrahydro-1H-pyrrolizin-7a(5H)-yl)methoxy)-5,6,7,8-tetrahydropyrido[3,4-d]pyrimidin-4-yl)-2-thia-1,3,7-triazaspiro[4.5]decane 2,2-dioxide], the IC50 – broadly, the midpoint of a concentration-inhibition curve – in [1] is 216 nM; in assay [2] it was 141 nM; in assay [3] it was 3 nM; in assay [4], < 2 nM; in [5], 1.4 nM; in [6] it was 806 nM. The IC50 in assay [7] is 19 nM; in [8], 2 nM; in assay [9] it was 30 nM; in assay [10], 3 nM; in [11], 240 nM; in assay [12], 70 nM. Also, the results for the IC50 in assay [13] and in assay [14] were 421 nM and 2 nM, respectively.

For the compound `C=C1CN2CCCC2(COc2nc3c(c(N4CCCC5(CCO5)C4)n2)CCN(c2cc(O)cc4ccc(F)c(CC)c24)C3)C1` (stereo not shown) [Example 713, 5-ethyl-6-fluoro-4-(2-((2-methylenetetrahydro-1H-pyrrolizin-7a(5H)-yl)methoxy)-4-(1-oxa-6-azaspiro[3.5]nonan-6-yl)-5,8-dihydropyrido[3,4-d]pyrimidin-7(6H)-yl)naphthalen-2-ol], the IC50 was 92 nM in assay [1]; 127 nM in [2]; < 2 nM in assay [3]; < 2 nM in [4]; 10.5 nM in [5]; 1800 nM in assay [6]. Moreover, the IC50 is 17 nM in assay [7]; < 2 nM in assay [8]; 29 nM in [9]; 2 nM in [10]; 253 nM in assay [11]; 51 nM in assay [12]. Moreover, the figures for the IC50 in assay [13] and in assay [14] were 67 nM and < 2 nM, respectively.
